Earlier results on 3 molecules are cited in PubChem BioAssay AID1259409 (Chemical Carcinogenesis Research Information System (CCRIS), 2018).

The test system of this data set is rodent chemically induced tumor inhibition, incidence and multiplicity. Briefly: CCRIS tumor inhibitor studies. The note with it: Dose [Inhibitor]: 0.

Turning to `CC(=O)Oc1c(C)c(C)c2c(c1C)CC[C@@](C)(CCC[C@H](C)CCC[C@H](C)CCCC(C)C)O2`, the “tumour outcome (control, treated, inhibition, significance)” value is 100%, 80%, 20%, p<0.05 (Carcinogen: 7,12-DIMETHYLBENZ[A]ANTHRACENE, 57-97-6, 0.2% IN DIET BEGINNING 1 WK PRIOR TO CARCINOGEN DOSE AND CONTINUING FOR 12 WK (STUDY DURATION: 13 WK), Route [Inhibitor]: ORAL, Species: RAT, Strain/Sex: SPRAGUE-DAWLEY/FEMALE, Target Tissue: Type of Lesion: MAMMARY GLAND: TUMORS, Dose [Carcinogen]: 10 MG IN 1 ML CORN OIL ONCE, Promoter: NONE USED); 100%, 93%, 7%, not significant (Carcinogen: 7,12-DIMETHYLBENZ[A]ANTHRACENE, 57-97-6, 10 UMOL 1/WK 5 MIN PRIOR TO EACH PROMOTER DOSE BEGINNING 2 WK POST CARCINOGEN DOSE AND CONTINUING FOR 29 WK (STUDY DU, Route [Inhibitor]: DERMAL, Species: MOUSE, Strain/Sex: SENCAR/FEMALE, Target Tissue: Type of Lesion: SKIN: PAPILLOMA, Dose [Carcinogen]: 25 NMOL ONCE, Promoter: CHRYSAROBIN, 491-58-7); 100%, 68%, 32%, not calculated (Carcinogen: 7,12-DIMETHYLBENZ[A]ANTHRACENE, 57-97-6, 40 UMOL 1/WK 5 MIN PRIOR TO EACH PROMOTER DOSE BEGINNING 2 WK PRIOR TO CARCINOGEN DOSE AND CONTINUING FOR 29 WK (STUD, Route [Inhibitor]: DERMAL, Species: MOUSE, Strain/Sex: SENCAR/FEMALE, Target Tissue: Type of Lesion: SKIN: PAPILLOMA, Dose [Carcinogen]: 25 NMOL ONCE, Promoter: CHRYSAROBIN, 491-58-7); 22/54 (41%), 19/50 (38%), 7%, not calculated (Carcinogen: ETHYLNITROSOUREA, 759-73-9, 600 MG/KG IN 1:10 (VOLUME: VOLUME) SUNFLOWER OIL IN DIET 5 D/WK FOR 18 MO (STUDY DURATION: 18 MO), Route [Inhibitor]: ORAL, Species: RAT, Strain/Sex: ALBINO/MALE,FEMALE, Target Tissue: Type of Lesion: BRAIN: GLIOMA OR ASTROCYTOMA, Dose [Carcinogen]: 7.5 MG/KG IN SALINE BY INTRAVENOUS INJECTION ONCE 21 D AFTER CONCEPTION); 7/54 (13%), 5/50 (10%) 23%, not calculated (Carcinogen: ETHYLNITROSOUREA, 759-73-9, 600 MG/KG IN 1:10 (VOLUME: VOLUME) SUNFLOWER OIL IN DIET 5 D/WK FOR 18 MO (STUDY DURATION: 18 MO), Route [Inhibitor]: ORAL, Species: RAT, Strain/Sex: ALBINO/MALE,FEMALE, Target Tissue: Type of Lesion: NERVOUS SYSTEM: SCHWANNOMA, Dose [Carcinogen]: 7.5 MG/KG IN SALINE BY INTRAVENOUS INJECTION ONCE 21 D AFTER CONCEPTION); 3/54 (6%), 6/50 (12%), -100%, not calculated (Carcinogen: ETHYLNITROSOUREA, 759-73-9, 600 MG/KG IN 1:10 (VOLUME: VOLUME) SUNFLOWER OIL IN DIET 5 D/WK FOR 18 MO (STUDY DURATION: 18 MO), Route [Inhibitor]: ORAL, Species: RAT, Strain/Sex: ALBINO/MALE,FEMALE, Target Tissue: Type of Lesion: SPINAL CORD: TUMOR, Dose [Carcinogen]: 7.5 MG/KG IN SALINE BY INTRAVENOUS INJECTION ONCE 21 D AFTER CONCEPTION).

Turning to `COc1cc2c(cc1OC)[C@]1(O)C(=O)c3ccc4c(c3O[C@@H]1CO2)C=CC(C)(C)O4`, for the setting “Carcinogen: 7,12-DIMETHYLBENZ[A]ANTHRACENE, 57-97-6, 85 NMOL 2/WK BEGINNING 1 WK POST CARCINOGEN DOSE (STUDY DURATION: 20 WK), Route [Inhibitor]: DERMAL, Species: MOUSE, Strain/Sex: ICR/FEMALE, Target Tissue: Type of Lesion: SKIN: PAPILLOMA, Dose [Carcinogen]: 390 NMOL, Promoter: 12-O-TETRADECANOYLPHORBOL-13-ACETATE, 16561-29-8”, the “tumour outcome (control, treated, inhibition, significance)” value was 100%, 40%, 60%, not calculated.

On to `c1ccc2c(c1)Oc1ccccc1O2`, for which the “tumour outcome (control, treated, inhibition, significance)” value (Carcinogen: 7,12-DIMETHYLBENZ[A]ANTHRACENE, 57-97-6, 17 NMOL 2/WK APPLIED 1 HR PRIOR TO EACH PROMOTER DOSE FOR 20 WK (STUDY DURATION: 21 WK), Route [Inhibitor]: DERMAL, Species: MOUSE, Target Tissue: Type of Lesion: SKIN: TUMOR, Dose [Carcinogen]: 390 NMOL ONCE, Promoter: 12-O-TETRADECANOYLPHORBOL-13-ACETATE, 16561-29-8) is reported as 100%, 73%, 27%, not calculated.
